One series concerns Jurkat cells. Briefly: Apoptosis of Jurkat cells induced by FasL without or with cycloheximide. Type of series: cell-based, human. Conditions: FasL or FasL/CHX, no zVAD. On the procedure:
Jurkat cells were treated with 5 ng/ml of FasL without (A) or with cyclohexamide (CHX) (B) to induce apoptosis, or 5 ng/ml FasL, 1 μg/ml of CHX and 100 μM of zVAD.fmk to induce CICD (B). […] Cell viability was determined after 24 hours of incubation with indicated reagents using CellTiter-Glo ATP assay. The values represent viability relative to the control Jurkat cells without the treatment of FasL, which was set as 100% viability.
Cells were stained with DiOC6 or annexin V and EGFP-PI as described in FIG. 26A and FIG. 26B. […] Cell viability was determined by an ATP assay. Numbers represent viability normalized to that of the compound-treated cells in the absence of TNFα. […]
We seeded cells in 96-well plates (white plates for luminescent assays; black plates for fluorescent assays; clear plates for MTT assay) at the density of 5,000-10,000 cells per well for adherent cells or 20,000-50,000 cells per well for suspension cells in 100 μl of the appropriate phenol red-free media. After incubation, we determined cell viability using one of the following methods. For the ATP assay, we used luminescence-based commercial kits (CellTiter-Glo, Promega or ATPLite-M, PerkinElmer) and analyzed luminescence using a Wallac Victor II plate reader (PerkinElmer). For Sytox assay, we incubated cells with 1 μM Sytox Green reagent for thirty minutes at 37° C., and then performed fluorescent reading. […]

The subject of series [1] is FADD deficient Jurkat cells.
The test system of series [2] is RIP kinase-induced necroptosis in FADD-deficient Jurkat cells. Kind of series: Necroptosis induced by dimerized RIP kinase in FADD-deficient Jurkat cells, FACS. Type of series: cell-based, human. The following applies: dimerizer AP1510, zVAD.fmk, 48 hours. On the procedure: Percentage of PI-negative, GFP-positive cells (“Viability, %”) was determined by FACS. Numbers represent viability normalized to that of the compound-treated cells in the absence of dimerizer. Error bars represent standard deviations.

For a further series, the system named is LC3-II. Kind of series: LC3-II induction (autophagy marker) in cultured cells, western blotting. Type of series: cell-based. From the text:
FIG. 11 is a set of gels showing the detection of cleaved LC3 in CICD of cultured cells and in ischemic brain injury. […] Equal amounts of cellular proteins were subjected to SDS-PAGE and western blotting with anti-LC3 and tubulin antibodies. Arrows point to the LC3II. […] Isoflurane-anesthetized SV-129 mice were subjected to two hours transient middle cerebral artery (MCA) occlusion by the intraluminal filament techniques. Ischemic and contralateral areas of the brain were collected at indicated times following MCA, lysed in RIPA buffer and equal amount of total protein were subjected to western blotting using anti-LC3 and tubulin antibodies. FIG. 11C is similar to FIG. 11B, except that mice were injected with 2 μL of 4 mM 7-Cl-Nec-1 icy at four and six hours, and brains were collected at eight hours after occlusion.
In this and subsequent panels, cell viability was determined via ATP assay. Numbers represent viability normalized to that of the DMSO-treated cells in the absence of TNFα and menadione. Throughout, error bars represent standard deviations. […] Representative images are shown. […] The ratio of LC3-II to tubulin signals was calculated (“Ratio”) and normalized to the value in the control sample. […] In FIG. 28H, expression of beclin-1 (“Bec”) and tubulin (“Tub”) in the stable populations of cells in FIG. 28G was analyzed by western blotting.
On the technique in general: A western blot detects proteins with antibodies after separation by electrophoresis.

A further series relates to FADD deficient JK cells. Briefly: MNNG-induced death of FADD deficient JK cells. The series is classed as cell-based, human. The following applies: 30 μM Nec-1, 5 hours.

The source of these data is patent publication US20130158024A1, “TRICYCLIC NECROSTATIN COMPOUNDS” (priority 2005, published 2013).

“Also recorded” adds a separate entry of the source.

As to methylthiohydantoin-tryptophane [Nec-1], in the series on Jurkat cells, the “protection from apoptosis, in words” value is “but not apoptosis induced by FasL or FasL/CHX; also recorded: lack of cytoprotection by Nec-1 in apoptotic Jurkat cells treated with FasL-CHX for 24 hours; also recorded: but not by Nec-1; also recorded: could not be inhibited by Nec-1; also recorded: had no effect on FasL-CHX-induced accumulation of annexin V-positive and propidium iodide (PI)-negative cells”. In series [1] (24 hours, ATP assay), the “non-specific cytotoxicity, in words” value is recorded as “does not induce non-specific cytotoxicity in FADD-deficient Jurkat cells”. The same substance gave an LD50 in series [1] (compound in the absence of TNFα) of 374 µM. The “inhibition of RIP kinase-induced necroptosis, in words” value in series [2] is reported as “inhibits RIP kinase-induced necroptosis; also recorded: inhibited by Nec-1”. Further, the “LC3-II induction caused by rapamycin, in words” value in the series on LC3-II (BALB/c 3T3 cells, 2 μM rapamycin) is recorded as “had no effect on the LC3-II induction caused by rapamycin”. The “necroptotic LC3-II induction in cells, in words” value in the series on LC3-II (necroptotic stimuli (TNFα, TNFα-zVAD.fmk, FasL-zVAD.fmk)) is recorded as “the appearance of LC3II was efficiently inhibited by Nec-1; also recorded: efficiently blocked the necroptotic LC3-II induction”. Also, the “protection from MNNG-induced death, in words” value with FADD deficient JK cells is reported as “failed to protect cells from DNA alkylating agent 1-methyl-3-nitro-1-nitrosoguanidine (MNNG)-induced death”.
